Test results taken from patent US12043599B2, “Herbicidal compounds” (SYNGENTA PARTICIPATIONS AG, priority 2018, dated 2024).

How the values were obtained:
Type in all cases: in vivo
Settings in all cases: 250 g/h, evaluated after 13 days
[1] = test system: Setaria faberi (SETFA); test: Pre-emergence herbicidal glasshouse test, percentage damage
Method in brief: (§1)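 Glasshouse, 24/16 °C, 14 h photoperiod, 65% humidity. Sprayed at 250 g/h pre- (1 d) or post-emergence (8 d); evaluated 13 d after spraying, 5-point damage scale.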

[2] = test system: Echinochloa crus-galli (ECHCG); test: as above
Method in brief: as §1

[3] = test system: Alopecurus myosuroides (ALOMY); test: as above
Method in brief: as §1

[4] = test system: Avena fatua (AVEFA); test: as above
Method in brief: as §1

[5] = test system: Lolium perenne (LOLPE); test: as above
Method in brief: as §1

[6] = test system: Echinochloa crus-galli (ECHCG); test: Post-emergence herbicidal glasshouse test, percentage damage
Method in brief: as §1

[7] = test system: Alopecurus myosuroides (ALOMY); test: as above
Method in brief: as §1

[8] = test system: Avena fatua (AVEFA); test: as above
Method in brief: as §1

[9] = test system: Lolium perenne (LOLPE); test: as above
Method in brief: as §1

[10] = test system: Setaria faberi (SETFA); test: as above
Method in brief: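 Percentage damage was scored 13 days after treatment on a five-point scale (1=0-19% to 5=80-100%). Treatments were post-emergence sprays on 8-day-old wheat, barley and SETFA plants in a glasshouse (24/16 °C day/night, 14 h light, 65% humidity), using acetone/water 50:50 with 0.5% Tween 20 at the stated rates. Wheat additionally received cloquintocet-mexyl safener at 50 g/ha.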

Compound	SETFA PRE percentage damage (five point scale) [1]	ECHCG PRE percentage damage (five point scale) [2]	ALOMY PRE percentage damage (five point scale) [3]	AVEFA PRE percentage damage (five point scale) [4]	LOLPE PRE percentage damage (five point scale) [5]	ECHCG POST percentage damage (five point scale) [6]	ALOMY POST percentage damage (five point scale) [7]	AVEFA POST percentage damage (five point scale) [8]	LOLPE POST percentage damage (five point scale) [9]	SETFA POST percentage damage (five point scale) [10]
CC#Cc1cc(C)c(C2=C(OS(=O)(=O)c3ccccn3)CC3(CCN(S(=O)(=O)c4ccccn4)CC3)CC2=O)c(C)c1 [Compound P17]	4 (4=60-79%)	5 (5=80-100%)	5 (5=80-100%)	3 (3=40-59%)	4 (4=60-79%)	5 (5=80-100%)	5 (5=80-100%)	5 (5=80-100%)	5 (5=80-100%)	5 (5=80-100%)
CC#Cc1cc(C)c(C2=C(OC(=O)COC)CC3(CCN(C(=O)COC)CC3)CC2=O)c(C)c1 [Compound P18]	5 (5=80-100%)	5 (5=80-100%)	5 (5=80-100%)	5 (5=80-100%)	5 (5=80-100%)	5 (5=80-100%)	5 (5=80-100%)	5 (5=80-100%)	5 (5=80-100%)	5 (5=80-100%)
CC#Cc1cc(C)c(C2=C(OC(=O)OC)CC3(CCN(C(=O)COC)CC3)CC2=O)c(C)c1 [Compound P19]	5 (5=80-100%)	5 (5=80-100%)	5 (5=80-100%)	5 (5=80-100%)	5 (5=80-100%)	5 (5=80-100%)	5 (5=80-100%)	5 (5=80-100%)	5 (5=80-100%)	5 (5=80-100%)
CC#Cc1cc(C)c(C2=C(OC(=O)c3ccccc3F)CC3(CCN(C(=O)c4ccccc4F)CC3)CC2=O)c(C)c1 [Compound P20]	5 (5=80-100%)	5 (5=80-100%)	5 (5=80-100%)	3 (3=40-59%)	5 (5=80-100%)	5 (5=80-100%)	5 (5=80-100%)	5 (5=80-100%)	5 (5=80-100%)	5 (5=80-100%)
CC#Cc1cc(C)c(C2=C(OC(=O)OC)CC3(CCN(C(=O)OC(C)(C)C)CC3)CC2=O)c(C)c1 [Compound P21]	5 (5=80-100%)	5 (5=80-100%)	5 (5=80-100%)	4 (4=60-79%)	5 (5=80-100%)	5 (5=80-100%)	5 (5=80-100%)	5 (5=80-100%)	5 (5=80-100%)	5 (5=80-100%)
CC#Cc1cc(C)c(C2=C(OC(=O)OC)CC3(CCN(C(=O)c4ccccn4)CC3)CC2=O)c(C)c1 [Compound P24]	5 (5=80-100%)	5 (5=80-100%)	5 (5=80-100%)	5 (5=80-100%)	5 (5=80-100%)	5 (5=80-100%)	5 (5=80-100%)	5 (5=80-100%)	5 (5=80-100%)	5 (5=80-100%)
CC#Cc1cc(C)c(C2=C(OC(=O)c3ccccn3)CC3(CCN(C(=O)c4ccccn4)CC3)CC2=O)c(C)c1 [Compound P25]	5 (5=80-100%)	5 (5=80-100%)	5 (5=80-100%)	5 (5=80-100%)	5 (5=80-100%)	5 (5=80-100%)	5 (5=80-100%)	5 (5=80-100%)	5 (5=80-100%)	5 (5=80-100%)
CC#Cc1cc(C)c(C2=C(OC(=O)OC)CC3(CCN(C(=O)C(C)(C)C#N)CC3)CC2=O)c(C)c1 [Compound P27]	5 (5=80-100%)	5 (5=80-100%)	5 (5=80-100%)	5 (5=80-100%)	5 (5=80-100%)	5 (5=80-100%)	5 (5=80-100%)	5 (5=80-100%)	5 (5=80-100%)	5 (5=80-100%)
CC#Cc1cc(C)c(C2=C(OC(=O)OC)CC3(CCN(S(C)(=O)=O)CC3)CC2=O)c(C)c1 [Compound P28]	5 (5=80-100%)	5 (5=80-100%)	5 (5=80-100%)	5 (5=80-100%)	5 (5=80-100%)	5 (5=80-100%)	5 (5=80-100%)	5 (5=80-100%)	5 (5=80-100%)	5 (5=80-100%)
